Key:
IL-13 = IL-13 (Homo sapiens, UniProt P35225); assay: IL-13 dependent proliferation of TF-1 cells; type: cell-based
Source text: IL-13 is a cytokine with a key role in asthma and allergic disease (including allergic rhinitis) and it seems particularly important in […] the airway hyperreactivity seen with asthma (Wills-Karp, Immunol. Rev. 202:175-190, 2004). […] Pentosan polysulfate (PPS) and a DP5 sulfated xylan inhibited the proliferation of a human IL-13 responsive cell line. This occurs at very low doses and is not due to a toxic effect of the PPS because other, similarly sulfated polysaccharides, at the same concentrations of IL-13 and polysaccharide have no effect. These experiments utilize the TF-1 cells. TF-1 cells were originally established from a bone marrow sample from a person with severe pancytopenia. […]
The proliferation assays are carried out in 96-well microplates suitable for such assays (Falcon). […] The cells are counted with a Coulter Z2 Particle Counter and Size Analyzer (Coulter Electronics, England) and routinely 2.5×10^4 cells are added to microplate wells that contain either no IL-13 (negative control) or various dilutions of IL-13. When the effect of PPS is to be measured, the wells also contain various concentrations of this molecule. The cells proliferate for 48 hours at 37° C. in a humidified atmosphere, after which the number of cells present is quantified by staining with the AQUEOUS ONE dye (30 μl/well) for 3 hours and then absorbance is read at 490 nm.

[1] = test system: guinea pigs sensitized with ovalbumin (OVA) and challenged intranasally with OVA; assay: Allergic rhinitis model in the guinea pig (OVA); type: in vivo
Description: An allergic rhinitis model in the guinea pig was used. The guinea pigs are sensitized to ovalbumin (OVA) twice (on days 0 and 7) by an intraperitoneal injection of 0.5 ml saline containing 100 mg Al(OH)3 and 2 μg OVA. Three weeks after the last sensitization, animals are anaesthetized and the exposure of the nasal cavity to allergen is performed by dropping OVA solution at 20 mg/ml into bilateral nasal cavities. For the negative control the animals receive sensitization and challenge with saline. The animals are pretreated with either vehicle or drug (pentosan polysulfate or Budesonide) 30 min prior to intranasal instillation of OVA. Vehicle or drugs are administered, 25 μl-50 μl/nostril. A comparison of the pentosan polysulfate with Budesomde, as the reference compound, is included. Animals are terminated and all parameters measured eight hours after the provocation.
The nasal mucosal barrier permeability is assessed by measuring the leakage of protein-rich and non-sieved plasma into the nasal cavities. The amount of extravasated plasma is indicated as nasal lavage levels of total protein or albumin. Nasal lavage fluid is collected by gently rinsing the nasal cavities with phosphate buffered saline. The cells in this fluid are centrifuged and resuspended in phosphate buffered saline and counted using a semiautomated haematology analyzer. The cell composition of the nasal lavage is determined after a cytospin and staining with May Grynwald Giemsa.

IL-5 = molecular target: T1, IL-5 (Homo sapiens, UniProt P05113); assay: IL-5 dependent Ba/F-IL-5 cell proliferation (luciferase); type: cell-based; conditions: dose-response, FIG. 4
T1 construct: made in house; host or cells: baculovirus expression system (from the general materials paragraph)
T1 sequence (P05113 20-134): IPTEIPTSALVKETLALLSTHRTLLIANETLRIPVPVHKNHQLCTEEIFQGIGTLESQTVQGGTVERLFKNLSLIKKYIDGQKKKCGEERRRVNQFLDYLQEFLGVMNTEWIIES
Description: PPS inhibited the proliferation of an IL-5 responsive cell line. This occurs at very low doses and is not due to a toxic effect of the PPS as other similarly sulfated polysaccharides have no affect in this assay. These experiments are performed with the IL-5 responsive cells, Ba/F-IL-5. The Ba/F-IL-5 cells were derived from the Ba/F3 cell line.
The Ba/F3 cell line was transformed to be both IL-5 dependent and to express luciferase by co-transfection of the cells with pGL3 control vector (Promega, USA) and pEE6 hcmv-IL-5Rα. The control vector, pGL3 expresses a modified luciferase under the direct control of the SV40 promoter and enhancer, but contains no selectable marker. To prepare pEE6 hcmv-hIL-5Rα a full length human IL-5 receptor α chain (hIL-5R-α) was cloned by RT PCR from HL60 cells. The preparation of the Ba/F-IL-5 cells has been described by Coombe et al, Journal of Immunological Methods 215: 145-150, 1998. […]
After transfection, positive transfectants are selected in 3 μg/ml puromycin. […] The cells are counted with a Coulter Z2 Particle Counter and Size Analyzer (Coulter Electronics, England) and routinely 1.6×10^4 cells are added to microplate wells that contain either no IL-5 (negative control) or various dilutions of IL-5. When the effect of PPS, or other sulfated polysaccharides is to be measured, the wells also contain various concentrations of these molecules. […]

IL-13, sequence (P35225 25-146): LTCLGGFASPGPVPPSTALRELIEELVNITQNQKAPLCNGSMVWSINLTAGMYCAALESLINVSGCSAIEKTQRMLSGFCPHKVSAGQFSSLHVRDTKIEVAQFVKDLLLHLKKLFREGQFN

- Inhibition of IL-13 dependent proliferation of TF-1 cells (in words) (IL-13; FIG. 16, IL-13 2.5 ng/ml): markedly inhibit
- IL-13 mediated cell proliferation blocked (IL-13; PPS concentrations of 5-10 μg/ml, TF-1 cells, 48 hours): 75-80%
- Inhibition of IL-5 dependent Ba/F-IL-5 cell proliferation (in words) (IL-5): effective inhibitor
Substance: Pentosan polysulfate [PPS]
- Leukocyte infiltration into nasal lavage fluid (total white cell numbers) ([1]; 8 hours after intranasal OVA challenge, FIG. 12): inhibited leukocyte infiltration at all the concentrations tested
- Protein content of nasal lavage fluid (plasma exudation) ([1]; 8 hours after intranasal OVA challenge, drug intranasal 30 min before, FIG. 11): significantly reduced
- Cellular infiltrate in nasal lavage fluid ([1]; drugs at 5 mg/kg, FIG. 13): markedly reduced

Source: patent US20180078576A1, “SULPHATED XYLANS FOR TREATMENT OR PROPHYLAXIS OF RESPIRATORY DISEASES” (Paradigm Biopharmaceuticals Limited, priority 2007, published 2018)
